From ChEMBL document CHEMBL1201862, “PubChem BioAssay data set” (2004)
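Grown in 96-well plates, cells were treated for 48 hours with each compound at five concentrations. Insufficient inhibition: endpoint recorded as highest concentration tested. GI50: concentration for 50% inhibition of growth.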 Activity calls are given as the source filed them. No stated cut-off is given here; in the data, active = GI50 up to about 1.1 µM and inactive = higher.

Tests used:
Experiment in all cases: NCI-60 cell line screen, 48 h
COLO 205 = tested on: COLO 205
OVCAR-5 = tested on: OVCAR-5
SNB-19 = tested on: SNB-19
HOP-62 = tested on: HOP-62
SK-MEL-2 = tested on: SK-MEL-2
A549 = tested on: A549
SF-268 = tested on: SF-268
EKVX = tested on: EKVX
NCI/ADR-RES = tested on: NCI/ADR-RES
U-251 = tested on: U-251
A498 = tested on: A498
NCI-H23 = tested on: NCI-H23
HOP-92 = tested on: HOP-92
MDA-N = tested on: MDA-N
RXF 393 = tested on: RXF 393
HCT-116 = tested on: HCT-116
NCI-H522 = tested on: NCI-H522
Hs-578T = tested on: Hs-578T
BT-549 = tested on: BT-549
SNB-75 = tested on: SNB-75
SN12C = tested on: SN12C
RPMI-8226 = tested on: RPMI-8226
MDA-MB-231 = tested on: MDA-MB-231
CAKI-1 = tested on: CAKI-1
TK-10 = tested on: TK-10
LOX IMVI = tested on: LOX IMVI
OVCAR-4 = tested on: OVCAR-4
NCI-H460 = tested on: NCI-H460
SR = tested on: SR
MCF7 = tested on: MCF7
SK-OV-3 = tested on: SK-OV-3
ACHN = tested on: ACHN
OVCAR-3 = tested on: OVCAR-3
SF-295 = tested on: SF-295
HCT-15 = tested on: HCT-15
PC-3 = tested on: PC-3
IGROV-1 = tested on: IGROV-1
HL-60 = tested on: HL-60
UACC-257 = tested on: UACC-257
SK-MEL-5 = tested on: SK-MEL-5
K562 = tested on: K562
MDA-MB-435 = tested on: MDA-MB-435
CCRF-CEM = tested on: CCRF-CEM
UACC-62 = tested on: UACC-62
MOLT-4 = tested on: MOLT-4
OVCAR-8 = tested on: OVCAR-8
786-0 = tested on: 786-0
HT-29 = tested on: HT-29
SK-MEL-28 = tested on: SK-MEL-28
KM12 = tested on: KM12
UO-31 = tested on: UO-31
SW-620 = tested on: SW-620
Malme-3M = tested on: Malme-3M
T47D = tested on: T47D
M14 = tested on: M14
HCC 2998 = tested on: HCC 2998
DU-145 = tested on: DU-145
SF-539 = tested on: SF-539
NCI-H226 = tested on: NCI-H226

Fc1c(F)c(C(F)(F)F)c(F)c(F)c1N/N=C\c1c[nH]c2ccccc12
GI50 (COLO 205): 1.28 µM (inactive)
GI50 (OVCAR-5): 3.94 µM (inactive)
GI50 (SNB-19): 2.86 µM (inactive)
GI50 (HOP-62): 1.55 µM (inactive)
GI50 (SK-MEL-2): 2.78 µM (inactive)
GI50 (A549): 3.16 µM (inactive)
GI50 (SF-268): 5.24 µM (inactive)
GI50 (EKVX): 2.84 µM (inactive)
GI50 (NCI/ADR-RES): 2.13 µM (inactive)
GI50 (U-251): 3.23 µM (inactive)
GI50 (A498): 3.44 µM (inactive)
GI50 (NCI-H23): 3.95 µM (inactive)
GI50 (HOP-92): 3.61 µM (inactive)
GI50 (MDA-N): 1.72 µM (inactive)
GI50 (RXF 393): 2 µM (inactive)
GI50 (HCT-116): 3.73 µM (inactive)
GI50 (NCI-H522): 1.74 µM (inactive)
GI50 (Hs-578T): 8.38 µM (inactive)
GI50 (BT-549): 1.5 µM (inactive)
GI50 (SNB-75): 1.27 µM (inactive)
GI50 (SN12C): 3.13 µM (inactive)
GI50 (RPMI-8226): 2.81 µM (inactive)
GI50 (MDA-MB-231): 3.03 µM (inactive)
GI50 (CAKI-1): 2.55 µM (inactive)
GI50 (TK-10): 4.48 µM (inactive)
GI50 (LOX IMVI): 3.3 µM (inactive)
GI50 (OVCAR-4): 2.44 µM (inactive)
GI50 (NCI-H460): 1.86 µM (inactive)
GI50 (SR): 2.75 µM (inactive)
GI50 (MCF7): 2.69 µM (inactive)
GI50 (SK-OV-3): 1.39 µM (inactive)
GI50 (ACHN): 6.64 µM (inactive)
GI50 (OVCAR-3): 1.87 µM (inactive)
GI50 (SF-295): 2.2 µM (inactive)
GI50 (HCT-15): 3.37 µM
GI50 (PC-3): 2.13 µM (inactive)
GI50 (IGROV-1): 1.26 µM (inactive)
GI50 (HL-60): 2.54 µM (inactive)
GI50 (UACC-257): 3.52 µM (inactive)
GI50 (SK-MEL-5): 1.82 µM (inactive)
GI50 (K562): 2.87 µM (inactive)
GI50 (MDA-MB-435): 1.51 µM (inactive)
GI50 (CCRF-CEM): 1.23 µM (inactive)
GI50 (UACC-62): 2.44 µM (inactive)
GI50 (MOLT-4): 2.19 µM (inactive)
GI50 (OVCAR-8): 6.43 µM (inactive)
GI50 (786-0): 3.44 µM (inactive)
GI50 (HT-29): 2.48 µM (inactive)
GI50 (SK-MEL-28): 6.82 µM (inactive)
GI50 (KM12): 1.94 µM (inactive)
GI50 (UO-31): 1.16 µM (inactive)
GI50 (SW-620): 3.37 µM (inactive)
GI50 (Malme-3M): 3.92 µM (inactive)
GI50 (T47D): 2.4 µM (inactive)
GI50 (M14): 1.62 µM (inactive)
GI50 (HCC 2998): 1.85 µM (inactive)
GI50 (DU-145): 3.64 µM (inactive)

Cc1c(O)nc(/C=C/C(=O)O)nc1C(=O)O
GI50 (COLO 205): > 100 µM (inactive)
GI50 (OVCAR-5): > 100 µM (inactive)
GI50 (SNB-19): > 100 µM (inactive)
GI50 (HOP-62): > 100 µM (inactive)
GI50 (SK-MEL-2): > 100 µM (inactive)
GI50 (A549): > 100 µM (inactive)
GI50 (SF-268): > 100 µM (inactive)
GI50 (EKVX): > 100 µM (inactive)
GI50 (NCI/ADR-RES): > 100 µM (inactive)
GI50 (U-251): > 100 µM (inactive)
GI50 (A498): > 100 µM (inactive)
GI50 (NCI-H23): > 100 µM (inactive)
GI50 (HOP-92): > 100 µM (inactive)
GI50 (MDA-N): > 100 µM (inactive)
GI50 (RXF 393): > 100 µM (inactive)
GI50 (HCT-116): > 100 µM (inactive)
GI50 (NCI-H522): > 100 µM (inactive)
GI50 (Hs-578T): > 100 µM (inactive)
GI50 (BT-549): > 100 µM (inactive)
GI50 (SF-539): > 100 µM (inactive)
GI50 (SNB-75): > 100 µM (inactive)
GI50 (SN12C): > 100 µM (inactive)
GI50 (RPMI-8226): > 100 µM (inactive)
GI50 (MDA-MB-231): > 100 µM (inactive)
GI50 (CAKI-1): > 100 µM (inactive)
GI50 (TK-10): > 100 µM (inactive)
GI50 (LOX IMVI): > 100 µM (inactive)
GI50 (OVCAR-4): > 100 µM (inactive)
GI50 (NCI-H460): > 100 µM (inactive)
GI50 (SR): > 100 µM (inactive)
GI50 (MCF7): > 100 µM (inactive)
GI50 (SK-OV-3): > 100 µM (inactive)
GI50 (ACHN): > 100 µM (inactive)
GI50 (OVCAR-3): > 100 µM (inactive)
GI50 (SF-295): > 100 µM (inactive)
GI50 (HCT-15): > 100 µM
GI50 (PC-3): > 100 µM (inactive)
GI50 (IGROV-1): > 100 µM (inactive)
GI50 (HL-60): > 100 µM (inactive)
GI50 (NCI-H226): > 100 µM (inactive)
GI50 (UACC-257): > 100 µM (inactive)
GI50 (SK-MEL-5): > 100 µM (inactive)
GI50 (K562): > 100 µM (inactive)
GI50 (MDA-MB-435): > 100 µM (inactive)
GI50 (CCRF-CEM): > 100 µM (inactive)
GI50 (UACC-62): > 100 µM (inactive)
GI50 (MOLT-4): > 100 µM (inactive)
GI50 (OVCAR-8): > 100 µM (inactive)
GI50 (786-0): > 100 µM (inactive)
GI50 (HT-29): > 100 µM (inactive)
GI50 (SK-MEL-28): > 100 µM (inactive)
GI50 (KM12): > 100 µM (inactive)
GI50 (UO-31): > 100 µM (inactive)
GI50 (SW-620): > 100 µM (inactive)
GI50 (Malme-3M): > 100 µM (inactive)
GI50 (T47D): > 100 µM (inactive)
GI50 (M14): > 100 µM (inactive)
GI50 (DU-145): > 100 µM (inactive)
